In article PMC7421780 (Future Medicinal Chemistry, 2020):
Converted amounts (≈) assume the structure as drawn.

Experiments:
Assay in all cases: microbe, parasite or virus in culture
Format in all cases: cell-based
Conditions in all cases: Mycobacterium tuberculosis
[1] = system: INH-R1 (Mtb strain resistant to isoniazid)
[2] = system: RIF-R1 (Mtb strain resistant to rifampicin)
[3] = system: RIF-R2 (Mtb strain resistant to rifampicin)
[4] = system: FQ-R1 (Mtb strain resistant to fluoroquinolone)
[5] = system: INH-R2 (Mtb strain resistant to isoniazid)

| SMILES | IC50 [1] | IC90 [1] | MIC [1] | IC50 [2] | IC90 [2] | MIC [2] | IC50 [3] | IC90 [3] | MIC [3] | IC50 [4] | IC90 [4] | MIC [4] | IC50 [5] | IC90 [5] | MIC [5] |
| --- | --- | --- | --- | --- | --- | --- | --- | --- | --- | --- | --- | --- | --- | --- | --- |
| O=[N+]([O-])c1cn(Cc2cccc(Cn3cnc([N+](=O)[O-])c3)n2)cn1 [Compound 2b, 2,6-bis((4-nitro-1H-imidazol-1-yl)methyl)pyridine] | 68 µM | 90 µM | 98 µM (≈ 32.3 µg/mL) | 60 µM | 160 µM | 111 µM (≈ 36.5 µg/mL) | 38 µM | 61 µM | 68 µM (≈ 22.4 µg/mL) | 66 µM | 92 µM | 102 µM (≈ 33.6 µg/mL) | 24 µM | 28 µM | 28 µM (≈ 9.22 µg/mL) |
| O=C(C[n+]1ccn(Cc2cccc(Cn3cc[n+](CC(=O)c4ccc([N+](=O)[O-])cc4)c3)n2)c1)c1ccc([N+](=O)[O-])cc1.[Br-].[Br-] [Compound 4f, 1,1′-(pyridine-2,6-diylbis(methylene))bis(3-(2-(4-nitrophenyl)-2-oxoethyl)-1H-imidazol-3-ium) bromide] | 46 µM | 52 µM | 55 µM | 35 µM | 100 µM | 67 µM | 40 µM | 120 µM | > 200 µM | 49 µM | 91 µM | 87 µM | 39 µM | 75 µM | 65 µM |
| c1cc(Cn2cnc3ccccc32)nc(Cn2cnc3ccccc32)c1 [Compound 5, 2,6-bis((1H-benzo[d]imidazol-1-yl)methyl)pyridine] | > 50 µM | > 50 µM | > 50 µM | > 50 µM | > 50 µM | > 50 µM | > 50 µM | > 50 µM | > 50 µM | > 50 µM | > 50 µM | > 50 µM | > 50 µM | > 50 µM | > 50 µM |
| O=C(C[n+]1cn(Cc2cccc(Cn3c[n+](CC(=O)c4ccccc4)c4ccccc43)n2)c2ccccc21)c1ccccc1.[Br-].[Br-] [Compound 6c, 1,1′-(pyridine-2,6-diylbis(methylene))bis(3-(2-oxo-2-phenylethyl)-1H-benzo[d]imidazol-3-ium) bromide] | 42 µM | 170 µM | 120 µM | 24 µM | 110 µM | 87 µM | 44 µM | 120 µM | 100 µM | 40 µM | > 200 µM | 200 µM | 42 µM | 150 µM | 110 µM |
| O=C(C[n+]1cn(Cc2cccc(Cn3c[n+](CC(=O)c4ccc([N+](=O)[O-])cc4)c4ccccc43)n2)c2ccccc21)c1ccc([N+](=O)[O-])cc1.[Br-].[Br-] [Compound 6f, 1,1′-(pyridine-2,6-diylbis(methylene))bis(3-(2-(4-nitrophenyl)-2-oxoethyl)-1H-benzo[d]imidazol-3-ium) bromide] | 13 µM | 21 µM | 24 µM | 15 µM | 24 µM | 25 µM | 17 µM | 31 µM | 30 µM | 18 µM | 38 µM | 38 µM | 13 µM | 22 µM | 25 µM |
| C[C@H]1COc2c(N3CCN(C)CC3)c(F)cc3c(=O)c(C(=O)O)cn1c23 [Compound C3, Levofloxacin, reference compound] | 0.64 µM | 1.4 µM | 1.2 µM (≈ 0.434 µg/mL) | 0.59 µM | 0.91 µM |  | 0.6 µM | 1.2 µM | 1.1 µM (≈ 0.398 µg/mL) | 12 µM | 22 µM | 20 µM (≈ 7.23 µg/mL) | 0.84 µM | 1.4 µM |  |
| NNC(=O)c1ccncc1 [Isoniazid, reference compound] | > 200 µM | > 200 µM | > 200 µM | 0.15 µM | 0.21 µM | 0.17 µM (≈ 0.0233 µg/mL) | 0.54 µM | 0.6 µM | 0.62 µM (≈ 0.085 µg/mL) | 0.36 µM | 0.47 µM | 0.35 µM (≈ 0.048 µg/mL) | > 200 µM | > 200 µM | > 200 µM |
| CO[C@H]1/C=C/O[C@@]2(C)Oc3c(C)c(O)c4c(O)c(c(/C=N/N5CCN(C)CC5)c(O)c4c3C2=O)NC(=O)/C(C)=C\C=C\[C@H](C)[C@H](O)[C@@H](C)[C@@H](O)[C@@H](C)[C@H](OC(C)=O)[C@@H]1C [Rifampicin, reference compound] |  | 0.022 µM |  | 1.2 µM | 2.3 µM |  | > 50 µM | > 50 µM | > 50 µM | 0.013 µM | 0.039 µM | 0.027 µM (≈ 0.0222 µg/mL) | 0.0047 µM | 0.012 µM | 0.065 µM (≈ 0.0535 µg/mL) |
